pEC50: −log10 of the molar value.
How the values were obtained:
hFXR [1] = target: T1, hFXR (Homo sapiens (Human), UniProt Q96RI1); assay: In Vitro FXR Assay (PGL3), luciferase reporter in transfected CV-1 cells; type: cell-based; conditions: PGL3-ECRE*6-luc reporter, hFXR/hRXR, 18 hrs incubation
Method: CV-1 cells were seeded at a density of 2,000,000 cells in a T175 flask with DMEM+10% charcoal double-stripped FBS and incubated at 37° C. in a 5% CO2 for 18 h (O/N).
After 18 h of incubation, the medium in the T175 flask was changed with fresh DMEM+10% charcoal super-stripped serum.
To prepare the transfection reaction mixture, the transfection reagent (X-tremeGENE HP from Roche, Cat #06 366 236 001) was added in to a 1.5 mL microcentrifuge tube labelled “A” at a ratio of 1:3 (DNA in μg: transfection reagent in μL). OptiMEM medium (Life Technologies, Cat #31985-062) was added accordingly to provide a total volume of 1 mL. The transfection reaction mixture was then briefly vortexed and incubated at room temperature for 5 minutes.
In a separate 1.5 mL microcentrifuge tube labelled “B”, 100 μL OptiMEM and plasmids XPD90Gal pCMXhFXRfl, pCMXhRXRfl+PGL3-ECRE*6-luc+CMX-YFP in the ratio 2 μg: 2 μg:18 μg:3 μg were added. This microcentrifuge tube “B” was then briefly vortexed and incubated at room temperature for 5 minutes.
The total volume in tube labelled “A” was then transferred in to tube labelled “B.” The mixture was then briefly vortexed and the transfection:DNA complex was then incubated for about 15-20 minutes at room temperature.
Following incubation, the transfection reagent/DNA mixture complex was then added to cells in the T175 flask and the cells were incubated at […] (O/N) at 37° C. in 5% CO2.
In a 96 well plate, a half logarithmic serial dilution was prepared. OptiMEM was used as the diluent. Using any of one of the compounds described herein, a compound stock solution of 10 mM was prepared. An initial 1:100 dilution was made into the first well for a final concentration of 100 μM. The final concentrations in the 96-well plate was prepared by using a multichannel pipette to transfer 5 μL of the diluted compound to 384-well plate in quadruplicate.
Cells in T175 flask were trypsinized and cells were resuspending in 40 mL phenol red free DMEM+10% charcoal super-stripped FBS. Typically, one T175 flask was sufficient to seed two 384 well plates. CV-1 cells were seeded at 45 μL cell suspension/well using a multichannel pipet or a 384 multidrop dispenser. The cells were then incubated for 18 hrs, overnight.
After removing the plates from the incubator, the medium was flicked out of plate and 384 well plate was turned upside down onto paper towel. The remaining medium was gently tapped out. 15 μL lysis buffer was then added to each well using a multichannel pipet or a 384 well multi-drop dispenser. After incubation for 10 minutes at room temperature on shaker, 30 μL Luciferase buffer was added to each well. Luminescence counts were taken immediately using the Perkin Elmer Envision.
The ability of the compounds disclosed herein to […] FXR activity was quantified and the respective EC50 value was determined. Fex=fexaramine.

hFXR [2] = target: T1, hFXR; assay: In Vitro FXR Assay (TK), luciferase reporter in transfected CV-1 cells; type: cell-based; conditions: TK-ECRE-luc reporter, hFXR/hRXR, 18 hrs, maximum efficacy <25% of Fexaramine control classified as '+'
Summary of the method: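 Cells are seeded in charcoal double-stripped FBS medium, transfected overnight with FXR/RXR expression and ECRE-driven luciferase reporter plasmids, then treated with serially diluted compounds for 18 h. Lysates are measured for luciferase light output.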

T1 sequence (Q96RI1 whole entry): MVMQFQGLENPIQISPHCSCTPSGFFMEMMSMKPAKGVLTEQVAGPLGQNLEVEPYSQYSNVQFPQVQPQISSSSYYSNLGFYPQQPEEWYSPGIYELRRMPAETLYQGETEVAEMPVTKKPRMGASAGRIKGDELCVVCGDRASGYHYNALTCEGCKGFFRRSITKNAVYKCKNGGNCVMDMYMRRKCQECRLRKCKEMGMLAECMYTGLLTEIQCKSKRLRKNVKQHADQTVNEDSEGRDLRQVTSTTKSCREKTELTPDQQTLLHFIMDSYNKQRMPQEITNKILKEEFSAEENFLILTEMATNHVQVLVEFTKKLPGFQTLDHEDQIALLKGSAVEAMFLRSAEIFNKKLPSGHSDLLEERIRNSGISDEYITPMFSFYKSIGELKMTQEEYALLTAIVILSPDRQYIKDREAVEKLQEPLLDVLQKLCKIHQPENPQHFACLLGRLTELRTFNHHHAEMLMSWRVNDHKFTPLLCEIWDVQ
T1 sequence (P19793 whole entry partner): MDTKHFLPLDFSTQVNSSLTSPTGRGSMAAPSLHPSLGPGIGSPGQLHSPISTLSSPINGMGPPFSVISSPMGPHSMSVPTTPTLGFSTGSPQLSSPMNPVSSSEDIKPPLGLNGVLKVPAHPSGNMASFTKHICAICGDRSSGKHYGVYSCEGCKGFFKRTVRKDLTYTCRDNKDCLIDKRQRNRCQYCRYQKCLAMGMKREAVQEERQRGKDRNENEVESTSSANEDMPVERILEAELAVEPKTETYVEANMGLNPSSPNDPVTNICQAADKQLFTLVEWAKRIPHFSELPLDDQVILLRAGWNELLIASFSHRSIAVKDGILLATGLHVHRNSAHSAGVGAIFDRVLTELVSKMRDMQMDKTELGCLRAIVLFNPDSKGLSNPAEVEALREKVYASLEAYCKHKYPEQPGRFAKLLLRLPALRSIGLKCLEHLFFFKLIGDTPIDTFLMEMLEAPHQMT

Row | Structure (SMILES) | Cmpd/Fex (ratio of the EC50 for the test compound relative to the EC50 of the Fexaramine control) (hFXR [1]) | pEC50 (hFXR [2])
1 | CN(C)c1ccc(-c2ccc(CN(C(=O)C3CCCCC3)c3cccc4ccccc34)cc2)cc1 [Compound 9, N′-((4′-(Dimethylamino)-[1,1′-biphenyl]-4-yl)methyl)-N-(naphthalen-1-yl)cyclohexanecarboxamide] | ++ (‘++’ means Cmpd/Fex > 10 & < 100) | ≤ 5.00
2 | COC(=O)/C=C/c1cccc(N(Cc2ccc(-c3ccc(N(C)C)cc3)cc2)C(=O)C2CCCCC2)n1 [Compound 2, (E)-Methyl 3-(6-(N-((4′-(dimethylamino)-[1,1′-biphenyl]-4-yl)methyl)cyclohexanecarboxamido)pyridin-2-yl)acrylate] | ++ (‘++’ means Cmpd/Fex > 10 & < 100) | ≤ 5.00
3 | COC(=O)/C=C/c1cc(N(Cc2ccc(-c3ccc(N(C)C)cc3)cc2)C(=O)C2CCCCC2)ccn1 [Compound 3, (E)-Methyl 3-(4-(N-((4′-(dimethylamino)-[1,1′-biphenyl]-4-yl)methyl)cyclohexanecarboxamido)pyridin-2-yl)acrylate] | +++ (‘+++’ means Cmpd/Fex < 10) | 5.00 to 6.00
4 | COC(=O)/C=C/c1ccnc(N(Cc2ccc(-c3ccc(N(C)C)nc3)cc2)C(=O)C2CCOCC2)c1 [Compound 6, (E)-Methyl 3-(2-(N-(4-(6-(dimethylamino)pyridin-3-yl)benzyl)tetrahydro-2H-pyran-4-carboxamido)pyridin-4-yl)acrylate] | + (‘+’ means Cmpd/Fex > 100) | 5.00 to 6.00
5 | COC(=O)c1ccc2c(N(Cc3ccc(-c4ccc(N(C)C)cc4)cc3)C(=O)C3CCCCC3)cccc2c1 [Compound 8, Methyl 5-(N-((4′-(dimethylamino)-[1,1′-biphenyl]-4-yl)methyl)cyclohexanecarboxamido)-2-naphthoate] | ++ (‘++’ means Cmpd/Fex > 10 & < 100) | 5.00 to 6.00
6 | COC(=O)c1ccc2c(N(Cc3ccc(-c4ccc(OC)c(C)c4)cc3)C(=O)CC3COC3)nccc2c1 [Compound 83, Methyl 1-(N-((4′-methoxy-3′-methyl-[1,1′-biphenyl]-4-yl)methyl)-2-(oxetan-3-yl)acetamido)isoquinoline-6-carboxylate] | – | 5.00 to 6.00
7 | COC(=O)c1ccc2c(N(Cc3ccc(-c4ccc(Cl)c(C#N)c4)cc3)C(=O)CC(C)(C)C)nccc2c1 [Compound 32, Methyl 1-(N-((4′-chloro-3′-cyano-[1,1′-biphenyl]-4-yl)methyl)-3,3-dimethylbutanamido)isoquinoline-6-carboxylate] | – | 5.00 to 6.00

Other lines, results leading:

Row | Cmpd/Fex (ratio of the EC50 for the test compound relative to the EC50 of the Fexaramine control) (hFXR [1]) | pEC50 (hFXR [2]) | Structure (SMILES)
8 | +++ (‘+++’ means Cmpd/Fex < 10) | 5.00 to 6.00 | COC(=O)/C=C/c1ccnc(N(Cc2ccc(-c3ccc(N(C)C)cc3)cc2)C(=O)C2CCOCC2)c1 [Compound 4, (E)-Methyl 3-(2-(N-((4′-(dimethylamino)-[1,1′-biphenyl]-4-yl)methyl)tetrahydro-2H-pyran-4-carboxamido)pyridin-4-yl)acrylate]
9 | + (‘+’ means Cmpd/Fex > 100) | 5.00 to 6.00 | COC(=O)/C=C/c1ccnc(N(Cc2ccc(-c3ccc(N(C)C)nc3)cc2)C(=O)[C@H]2CC[C@H](O)CC2)c1 [Compound 7, (E)-Methyl 3-(2-(trans-N-(4-(6-(dimethylamino)pyridin-3-yl)benzyl)-4-hydroxycyclohexanecarboxamido)pyridin-4-yl)acrylate]
10 | +++ (‘+++’ means Cmpd/Fex < 10) | ≥ 6.00 | COC(=O)/C=C/c1ccnc(N(Cc2ccc(-c3ccc(N(C)C)cc3)cc2)C(=O)C2CCCCC2)c1 [Compound 1, (E)-Methyl 3-(2-(N-((4′-(dimethylamino)-[1,1′-biphenyl]-4-yl)methyl)cyclohexanecarboxamido)pyridin-4-yl)acrylate]
11 | – | ≥ 6.00 | COC(=O)c1ccc2c(N(Cc3ccc(-c4cnc5c(ccn5C)c4)cc3)C(=O)CC(C)(C)C)nccc2c1 [Compound 49, Methyl 1-(3,3-dimethyl-N-(4-(1-methyl-1H-pyrrolo[2,3-b]pyridin-5-yl)benzyl)butanamido)isoquinoline-6-carboxylate]

Source: patent US10377717B2, “Farnesoid X receptor agonists and uses thereof” (Metacrine, Inc., priority 2015, dated 2019)
